Key:
A control cell lines = test: MTT assay, A control cell lines (lung cancer cell); type: cell-based
Excerpt: Please refer to Table 1 and FIGS. 4A-4C. According to a MTT assay (Table 1), various cell viabilities of the A control cell lines can be obtained and illustrated in FIG. 4A while the compounds No. 2˜30 are used to treat A control cell lines, wherein A control cell lines are lung cancer cell.

A3 cell lines = test: MTT assay, A3 cell lines (lung cancer stem cell); type: cell-based
Excerpt: Please to FIG. 4B, various cell viabilities of the A3 cell lines can be obtained through the MTT assay and illustrated in FIG. 4B while the compounds No. 1˜30 are used to treat A3 cell lines, wherein A3 cell lines are lung cancer stem cell.

[1] = MTT assay, HEL299 fibroblast; type: cell-based; conditions: human
Excerpt: (§1) Please refer to FIG. 4C, various cell viabilities of the HEL299 cell lines can be obtained through the MTT assay while the compounds No. 1˜30 are used to treat HEL299 cell lines, wherein HEL299 cell lines are fibroblast.

CCRF-CEM = test: NCI in vitro DTP human cell line screen, CCRF-CEM; type: cell-based; conditions: Leukemia, 1.00E−5 Molar
Procedure: (§2) Then, a cell toxicity assay of the cancer lines made by National Cancer Institute will be discussed as follows. The cell toxicity assay is performed by choosing ten compounds (existing certification numbers) from the 59 compounds disclosed in the present invention first.

HL-60(TB) = test: NCI in vitro DTP human cell line screen, HL-60(TB); type: cell-based; conditions: Leukemia, 1.00E−5 Molar
Procedure: as §2

K562 = test: NCI in vitro DTP human cell line screen, K562; type: cell-based; conditions: Leukemia, 1.00E−5 Molar
Procedure: as §2

MOLT-4 = test: NCI in vitro DTP human cell line screen, MOLT-4; type: cell-based; conditions: Leukemia, 1.00E−5 Molar
Procedure: as §2

RPMI-8226 = test: NCI in vitro DTP human cell line screen, RPMI-8226; type: cell-based; conditions: Leukemia, 1.00E−5 Molar
Procedure: as §2

SR = test: NCI in vitro DTP human cell line screen, SR; type: cell-based; conditions: Leukemia, 1.00E−5 Molar
Procedure: as §2

HOP-62 = test: NCI in vitro DTP human cell line screen, HOP-62; type: cell-based; conditions: Non-Small Cell Lung Cancer, 1.00E−5 Molar
Procedure: as §2

HOP-92 = test: NCI in vitro DTP human cell line screen, HOP-92; type: cell-based; conditions: Non-Small Cell Lung Cancer, 1.00E−5 Molar
Procedure: as §2

NCI-H226 = test: NCI in vitro DTP human cell line screen, NCI-H226; type: cell-based; conditions: Non-Small Cell Lung Cancer, 1.00E−5 Molar
Procedure: as §2

NCI-H23 = test: NCI in vitro DTP human cell line screen, NCI-H23; type: cell-based; conditions: Non-Small Cell Lung Cancer, 1.00E−5 Molar
Procedure: as §2

NCI-H322M = test: NCI in vitro DTP human cell line screen, NCI-H322M; type: cell-based; conditions: Non-Small Cell Lung Cancer, 1.00E−5 Molar
Procedure: as §2

NCI-H460 = test: NCI in vitro DTP human cell line screen, NCI-H460; type: cell-based; conditions: Non-Small Cell Lung Cancer, 1.00E−5 Molar
Procedure: as §2

NCI-H522 = test: NCI in vitro DTP human cell line screen, NCI-H522; type: cell-based; conditions: Non-Small Cell Lung Cancer, 1.00E−5 Molar
Procedure: as §2

COLO 205 = test: NCI in vitro DTP human cell line screen, COLO 205; type: cell-based; conditions: Colon Cancer, 1.00E−5 Molar
Procedure: as §2

HCC-2998 = test: NCI in vitro DTP human cell line screen, HCC-2998; type: cell-based; conditions: Colon Cancer, 1.00E−5 Molar
Procedure: as §2

HCT-116 = test: NCI in vitro DTP human cell line screen, HCT-116; type: cell-based; conditions: Colon Cancer, 1.00E−5 Molar
Procedure: as §2

HCT-15 = test: NCI in vitro DTP human cell line screen, HCT-15; type: cell-based; conditions: Colon Cancer, 1.00E−5 Molar
Procedure: as §2

HT29 = test: NCI in vitro DTP human cell line screen, HT29; type: cell-based; conditions: Colon Cancer, 1.00E−5 Molar
Procedure: as §2

KM12 = test: NCI in vitro DTP human cell line screen, KM12; type: cell-based; conditions: Colon Cancer, 1.00E−5 Molar
Procedure: as §2

SW-620 = test: NCI in vitro DTP human cell line screen, SW-620; type: cell-based; conditions: Colon Cancer, 1.00E−5 Molar
Procedure: as §2

SF-268 = test: NCI in vitro DTP human cell line screen, SF-268; type: cell-based; conditions: CNS Cancer, 1.00E−5 Molar
Procedure: as §2

SF-539 = test: NCI in vitro DTP human cell line screen, SF-539; type: cell-based; conditions: CNS Cancer, 1.00E−5 Molar
Procedure: as §2

SNB-19 = test: NCI in vitro DTP human cell line screen, SNB-19; type: cell-based; conditions: CNS Cancer, 1.00E−5 Molar
Procedure: as §2

SNB-75 = test: NCI in vitro DTP human cell line screen, SNB-75; type: cell-based; conditions: CNS Cancer, 1.00E−5 Molar
Procedure: as §2

U251 = test: NCI in vitro DTP human cell line screen, U251; type: cell-based; conditions: CNS Cancer, 1.00E−5 Molar
Procedure: as §2

LOX IMVI = test: NCI in vitro DTP human cell line screen, LOX IMVI; type: cell-based; conditions: Melanoma, 1.00E−5 Molar
Procedure: as §2

MALME-3M = test: NCI in vitro DTP human cell line screen, MALME-3M; type: cell-based; conditions: Melanoma, 1.00E−5 Molar
Procedure: as §2

M14 = test: NCI in vitro DTP human cell line screen, M14; type: cell-based; conditions: Melanoma, 1.00E−5 Molar
Procedure: as §2

SK-MEL-2 = test: NCI in vitro DTP human cell line screen, SK-MEL-2; type: cell-based; conditions: Melanoma, 1.00E−5 Molar
Procedure: as §2

SK-MEL-28 = test: NCI in vitro DTP human cell line screen, SK-MEL-28; type: cell-based; conditions: Melanoma, 1.00E−5 Molar
Procedure: as §2

SK-MEL-5 = test: NCI in vitro DTP human cell line screen, SK-MEL-5; type: cell-based; conditions: Melanoma, 1.00E−5 Molar
Procedure: as §2

UACC-257 = test: NCI in vitro DTP human cell line screen, UACC-257; type: cell-based; conditions: Melanoma, 1.00E−5 Molar
Procedure: as §2

UACC-62 = test: NCI in vitro DTP human cell line screen, UACC-62; type: cell-based; conditions: Melanoma, 1.00E−5 Molar
Procedure: as §2

IGROV1 = test: NCI in vitro DTP human cell line screen, IGROV1; type: cell-based; conditions: Ovarian Cancer, 1.00E−5 Molar
Procedure: as §2

OVCAR-3 = test: NCI in vitro DTP human cell line screen, OVCAR-3; type: cell-based; conditions: Ovarian Cancer, 1.00E−5 Molar
Procedure: as §2

OVCAR-4 = test: NCI in vitro DTP human cell line screen, OVCAR-4; type: cell-based; conditions: Ovarian Cancer, 1.00E−5 Molar
Procedure: as §2

OVCAR-5 = test: NCI in vitro DTP human cell line screen, OVCAR-5; type: cell-based; conditions: Ovarian Cancer, 1.00E−5 Molar
Procedure: as §2

OVCAR-8 = test: NCI in vitro DTP human cell line screen, OVCAR-8; type: cell-based; conditions: Ovarian Cancer, 1.00E−5 Molar
Procedure: as §2

NCI/ADR-RES = test: NCI in vitro DTP human cell line screen, NCI/ADR-RES; type: cell-based; conditions: Ovarian Cancer, 1.00E−5 Molar
Procedure: as §2

SK-OV-3 = test: NCI in vitro DTP human cell line screen, SK-OV-3; type: cell-based; conditions: Ovarian Cancer, 1.00E−5 Molar
Procedure: as §2

786-0 = test: NCI in vitro DTP human cell line screen, 786-0; type: cell-based; conditions: Renal Cancer, 1.00E−5 Molar
Procedure: as §2

ACHN = test: NCI in vitro DTP human cell line screen, ACHN; type: cell-based; conditions: Renal Cancer, 1.00E−5 Molar
Procedure: as §2

RXF 393 = test: NCI in vitro DTP human cell line screen, RXF 393; type: cell-based; conditions: Renal Cancer, 1.00E−5 Molar
Procedure: as §2

SN12C = test: NCI in vitro DTP human cell line screen, SN12C; type: cell-based; conditions: Renal Cancer, 1.00E−5 Molar
Procedure: as §2

TK-10 = test: NCI in vitro DTP human cell line screen, TK-10; type: cell-based; conditions: Renal Cancer, 1.00E−5 Molar
Procedure: as §2

UO-31 = test: NCI in vitro DTP human cell line screen, UO-31; type: cell-based; conditions: Renal Cancer, 1.00E−5 Molar
Procedure: as §2

PC-3 = test: NCI in vitro DTP human cell line screen, PC-3; type: cell-based; conditions: Prostate Cancer, 1.00E−5 Molar
Procedure: as §2

DU145 = test: NCI in vitro DTP human cell line screen, DU145; type: cell-based; conditions: Prostate Cancer, 1.00E−5 Molar
Procedure: as §2

MCF7 = test: NCI in vitro DTP human cell line screen, MCF7; type: cell-based; conditions: Breast Cancer, 1.00E−5 Molar
Procedure: as §2

MDA-MB-231/ATCC = test: NCI in vitro DTP human cell line screen, MDA-MB-231/ATCC; type: cell-based; conditions: Breast Cancer, 1.00E−5 Molar
Procedure: as §2

HS 578-T = test: NCI in vitro DTP human cell line screen, HS 578-T; type: cell-based; conditions: Breast Cancer, 1.00E−5 Molar
Procedure: as §2

BT-549 = test: NCI in vitro DTP human cell line screen, BT-549; type: cell-based; conditions: Breast Cancer, 1.00E−5 Molar
Procedure: as §2

T-47D = test: NCI in vitro DTP human cell line screen, T-47D; type: cell-based; conditions: Breast Cancer, 1.00E−5 Molar
Procedure: as §2

MDA-MB-468 = test: NCI in vitro DTP human cell line screen, MDA-MB-468; type: cell-based; conditions: Breast Cancer, 1.00E−5 Molar
Procedure: as §2

60 cancer lines = test: NCI cell toxicity assay of 60 cancer lines, whole panel summary; type: cell-based, human; conditions: 1.00E−5 Molar
Procedure: as §2

HEL299 fibroblast = test: MTT assay, HEL299 fibroblast; type: cell-based
Excerpt: as §1

[2] = summary of MTT cell viabilities

## O=c1c2ccccc2sc2c(Cl)c(SCc3ccc(F)cc3)ccc12 [No. 24, 4-Chloro-3-(4-fluorobenzylthio)-9H-thioxanthen-9-one]
A control cell lines
  cell viabilities of A control cell lines (MTT assay): 35.5%
A3 cell lines
  cell viabilities of A3 cell lines (MTT assay): 47.8%
[1]
  viability: 62.7 ± 4.89%
CCRF-CEM
  Growth Percent: 68.02%
HL-60(TB)
  Growth Percent: 109.87%
K562
  Growth Percent: 90.35%
MOLT-4
  Growth Percent: 93.42%
RPMI-8226
  Growth Percent: 92.73%
SR
  Growth Percent: 23.41%
HOP-62
  Growth Percent: 70.93%
HOP-92
  Growth Percent: 76.43%
NCI-H226
  Growth Percent: 92.71%
NCI-H23
  Growth Percent: 93.31%
NCI-H322M
  Growth Percent: 89.87%
NCI-H460
  Growth Percent: 60.27%
NCI-H522
  Growth Percent: 76.14%
COLO 205
  Growth Percent: 86.59%
HCC-2998
  Growth Percent: 100.08%
HCT-116
  Growth Percent: 76.97%
HCT-15
  Growth Percent: 84.86%
HT29
  Growth Percent: 79.24%
KM12
  Growth Percent: 102.36%
SW-620
  Growth Percent: 78.63%
SF-268
  Growth Percent: 95.00%
SF-539
  Growth Percent: 103.66%
SNB-19
  Growth Percent: 77.05%
SNB-75
  Growth Percent: 64.79%
U251
  Growth Percent: 54.73%
LOX IMVI
  Growth Percent: 81.78%
MALME-3M
  Growth Percent: 93.42%
M14
  Growth Percent: 93.91%
SK-MEL-2
  Growth Percent: 108.61%
SK-MEL-28
  Growth Percent: 107.78%
SK-MEL-5
  Growth Percent: 95.97%
UACC-257
  Growth Percent: 103.43%
UACC-62
  Growth Percent: 85.61%
IGROV1
  Growth Percent: 79.84%
OVCAR-3
  Growth Percent: 105.27%
OVCAR-4
  Growth Percent: 39.31%
OVCAR-5
  Growth Percent: 108.14%
OVCAR-8
  Growth Percent: 85.39%
NCI/ADR-RES
  Growth Percent: 92.71%
SK-OV-3
  Growth Percent: 90.11%
786-0
  Growth Percent: 91.67%
ACHN
  Growth Percent: 60.81%
RXF 393
  Growth Percent: 92.20%
SN12C
  Growth Percent: 84.46%
TK-10
  Growth Percent: 83.61%
UO-31
  Growth Percent: 95.13%
PC-3
  Growth Percent: 86.19%
DU145
  Growth Percent: 103.70%
MCF7
  Growth Percent: 89.93%
MDA-MB-231/ATCC
  Growth Percent: 81.64%
HS 578-T
  Growth Percent: 67.70%
BT-549
  Growth Percent: 88.80%
T-47D
  Growth Percent: 81.88%
MDA-MB-468
  Growth Percent: 92.16%
60 cancer lines; mean over all cell lines
  Growth Percent, Mean: 85.42%
60 cancer lines; summary of Table 3
  cancer types with the better inhibition effect (in words): better inhibition effect on Leukemia and central nervous system cancer

## Cc1cc(C)c(CSc2ccc3c(=O)c4ccccc4sc3c2Cl)c(C)c1 [No. 28, 4-Chloro-3-(2,4,6-trimethylbenzylthio)-9H-thioxanthen-9-one]
A control cell lines
  cell viabilities of A control cell lines (MTT assay): 52.9%
A control cell lines; [2]
  inhibition effect on A control cell line (in words): inhibition effect
A3 cell lines
  cell viabilities of A3 cell lines (MTT assay): 98.3 ± 2.25%
[1]
  viability: 91.2%
HEL299 fibroblast
  cytotoxicity effect on the normal fibroblast (in words): without the cytotoxicity effect

## CC(C)Sc1ccc2c(=O)c3ccccc3sc2c1Cl [No. 4, 4-Chloro-3-(isopropylthio)-9H-thioxanthen-9-one]
A control cell lines
  cell viabilities of A control cell lines (MTT assay): 91.1 ± 2.02%
A3 cell lines
  cell viabilities of A3 cell lines (MTT assay): 56.1%
A3 cell lines; [2]
  inhibition effect on A3 cell line (in words): inhibition effect
[1]
  viability: 103%
HEL299 fibroblast
  cytotoxicity effect on the normal fibroblast (in words): without the cytotoxicity effect

Source: US8410161B2, “Thioxanthone ring system derivatives” (National Defense Medical Center, priority 2010, dated 2013)
